Literature values as cited in patent publication US20050032891A1, “Method for treating alcoholic hepatitis” (University of Pittsburgh-of the Commonwealth System of …, priority 2003, published 2005).

System: rats subjected to hemorrhagic shock and resuscitation
Details: treatment with EP

## CCOC(=O)C(C)=O [EP, ethyl pyruvate]
  hepatic lipid peroxidation: decreases hepatic lipid peroxidation
